Results on two compounds are retold here after patent US20250000979A1, “TRIPLET-TRIPLET ENERGY TRANSFER WITH LIGHT EXCITATION AT LONG WAVELENGTHS AND METHODS THEREOF” (priority 2023, published 2025).

Marks after values point to notes of the source that are not given here.

One data set relates to HeLa tumor. The data set is described as follows: In vivo light-triggered prodrug activation and tumor inhibition. Set-up: species or system BALB/c nude mice. Particulars: 8 mg/kg intravenous Day 1 and 6, no light. The protocol:
Encouraged by the anti-proliferation effect and tumor retention capability, Os/BC NPs were considered as an applicable agent for light-triggered drug release and photoactivated cancer chemotherapy. The HeLa tumor-bearing mice were randomly divided into […] (n=5) when the tumors reached at around […]. PBS, free Cb (8 mg/kg), Os NPs (at the equivalent concentration of Os in Os/BC NPs), BC NPs (at the equivalent concentration of Cb) and Os/BC NPs (at the equivalent concentration of Cb) were intravenously injected on Day 1 (FIG. 6C). At 24 h post injection, NIR-light irradiation (690 nm, 300 mW/cm^2, 10 min) was applied topically onto the tumor area (FIG. 6D). The formulation injection and light irradiation were repeated on Day 6 and 7, respectively. For evaluating therapeutic efficacy, tumor volume was recorded within the treatment period. […] However, no statistical difference was found between Group 3 and Groups 1, 2, 4 and 5. […] Hematoxylin and eosin (H&E) staining assay was conducted to investigate the pathology of the tumors and organs. […]
The anti-tumor efficacy of the formulations in presence or absence of light was investigated with HeLa tumor-bearing mice. […] Tumor sizes and body weights were measured during the period, and the tumor volume was calculated as V=½×width^2×length. […]

The conditions of data set [1]: in toluene, calculated by TD-DFT, referred to previous studies; cited from earlier work.
Data set [2] can be described thus: Photophysical properties (UV-Vis absorption, emission, energy levels). Particulars: for λabs, max (S0-S1): S0-S1 (1MLCT) absorption; for λabs, max (S0-S1) / λabs, max (S0-T1): dichloromethane with 2% acetone, 10 μM; for λabs, max (S0-T1): S0-T1 (3MLCT, S-T) absorption; for E (absorption coefficient, S0-T1 band): at 688 nm (S0-T1); for Energy level T1 state: calculated from maximum T1 (phosphorescence) emission wavelength. Type of data set: physicochemical. The source says: The absorption peak at about 492 nm is identified as the singlet metal-to-ligand charge transfer (^1MLCT) absorption, also termed as singlet-singlet (S-S) absorption. […] The two twistable bromophenyl groups of the bromophenyl terpyridine ligands extend the S-T absorption from 650 nm to 750 nm with increased absorption coefficient.
CombiFlash Rf chromatography instrument was purchased from Teledyne ISCO (Lincoln, USA) for chemical purification. Light sources used in this study were purchased from Yuanming Laser (Ningbo, China) and Mightex (CA, USA). The purity verification and photolysis study were conducted with a high-performance liquid chromatography (HPLC) system (Agilent technologies, 1260), attached with C-18 columns which were obtained from Agilent (Santa Clara, California, United States). Nuclear magnetic resonance (NMR) spectroscopy was collected by Bruker AVANCE III HD 500 spectrometer (MA, US). Fluorescence, phosphorescence and UV-vis spectra were collected by a SpectraMax M4 microplate reader (Molecular Devices, CA, US). The particle size and surface charge were recorded by a dynamic light scattering (DLS) device, Zetasizer Nano-ZS90 (Malvern instruments, UK). Transmission electron microscope (TEM) imaging was conducted on a Hitachi HT7700 TEM (Tokyo, Japan). ACEA NovoCyte Quanteon flow cytometer (ACEA Biosciences, CA, USA) was used for flow cytometry. In vivo and ex vivo imaging of the mice were conducted with an In Vivo Imaging System (PerkinElmer, USA). Devices for animal study like including balance and vernier caliper were kindly provided by The Centre for Comparative Medicine Research (CCMR), The University of Hong Kong.

Data set [3] is described as follows: Encapsulation efficiency and loading capacity of Os/BC NP (HPLC). It is filed as physicochemical. Particulars: component of Os/BC NP. The protocol:
Flash nanoprecipitation method was used to fabricate the photosensitizer/prodrug-loading nanoparticles. […] Different formulations (Os NPs, BC NPs and Os/BC NPs) were then prepared with optimized ratios of components. Briefly, 224 μL of the mixed stock solution was added into 1.8 mL N2-saturated water under vortexing. The resulted solutions were added to dialysis bags (MW: 3400 Da) and dialyzed against 4 L of water for 24 h. The water out of dialysis bag was renewed every 8 h. The resulted solution of NPs was collected and filtrated with 220 nm filter. Finally, the NPs solutions were concentrated by ultrafiltration (Mw=100 kDa, 2000×g, 10 min) and stored at 4° C. until use. The concentrations of each component were measured by using HPLC. Loading capacity and encapsulation efficiency were calculated as follow: […]

A short description of data set [4]: Stern-Volmer phosphorescence quenching assay (TTET from Os(bptpy)2^2+ to BODIPY-Cb). Type of data set: physicochemical. On the procedure:
The energy transfer quenching rate constants (kTTET) was measured by Stern-Volmer experiment. […] Oxygen was removed by nitrogen bubbling (50 mL/min) for 10 min.
Energy transfer quenching rate constants of this TTET process, quantified as kTTET, can be calculated based on the below equation (2)
(τ0: phosphorescence lifetime of Os(bptpy)2^2+ in N2-saturated solution without quencher.)
For Os(bptpy)2^2+, τ0=0.20 μs.

For data set [5] the following is noted: N2-saturated solution without quencher; cited from earlier work.

As to `O=C(O)CCCc1ccc(N(CCCl)CCCl)cc1` [chlorambucil], the “tumor volume (anti-tumor effect)” value in the data set with HeLa tumor is “did not exhibit detectable anti-tumor effect”.
As to “Os (II) bromophenyl terpyridine complex [Os(bptpy)2^2+]”, the T1 lifetime in data set [1] is 0.20^f μs. Further, the “λabs, max (S0-S1)” value in data set [2] is listed as “about 492 nm”; in data set [2] (listed as Os(bptpy)2•2PF6) it was 491 (S0-S1) nm. Also, the figures for the “λabs, max (S0-T1)” value in data set [2] and in data set [2] (listed as Os(bptpy)2•2PF6) were 688 nm and 688 (S0-T1) nm, respectively. Moreover, in data set [2] (at 491 nm (S0-S1)), the “E (absorption coefficient, S0-S1 band)” value was found to be 73500 M⁻¹ cm⁻¹. Also, the “E (absorption coefficient, S0-T1 band)” value in data set [2] and in data set [2] (listed as Os(bptpy)2•2PF6) was 26600 M⁻¹ cm⁻¹ each time. Further, in data set [2] (calculated by maximum S1 emission wavelength, E = 1240/λem, S1), the “Energy level S1 state” value is reported as 2.56^h eV. Moreover, the “Energy level T1 state” value is 1.69 eV in data set [2] (E = 1240/λem) and 1.69^i eV in data set [2] (E = 1240/λem, listed as Os(bptpy)2•2PF6). For the same compound, the “λem, max” value in data set [2] (λex = 491 nm) is recorded as 498^c nm; in data set [2] (λex = 688 nm), 734^d nm. Also, the “Encapsulation Efficiency” value in data set [3] amounted to 29.43%. Further, the “Loading Capacity” value in data set [3] came to 0.22%. For the same compound, the Quenching constant kq result in data set [4] (10 μM Os(bptpy)2^2+, quencher BODIPY-Cb 0-7.5 μM, N2) is given as “(5.491±0.282)×10^4 M^−1”. Moreover, in data set [4] (energy transfer from T1 of Os(bptpy)2^2+ to T1 of BODIPY-Cb), the “TTET rate constant (kTTET)” value is “(2.72±0.14)×10^11 M^−1 s^−1”. The τ0 phosphorescence lifetime in data set [5] is 0.20 μs.
